For two molecules, LD100 and Activity results are on record in ChEMBL document CHEMBL1151345, “Isolation of a new potential antitumor compound from Wedelia asperrima” (J Nat Prod, 1980).

Molecules are shown by their SMILES. Calls of active or inactive are those of the source. The rule behind the calls is not given here.

Data set [1] is filed under the species Rattus norvegicus. The data set is described as follows: Toxicity in Wistar rat. The class given is organism-based. Particulars: in vivo.
A further data set relates to Mus musculus. The data set is described as follows: Toxicity in ip dosed mouse. The class given is organism-based. To be noted: in vivo.
Data set [2] is filed under the species Rattus norvegicus. The data set is described as follows: Antitumor activity against aflatoxin B1-induced tumor in Wistar rat at 30 ug for 8 weeks. The data set is classed as functional, organism-based.

Consider `C=C1[C@H](O)[C@]23CC[C@H]4C(C(=O)O)(C(=O)O)C[C@@H](O[C@@H]5O[C@H](CO)[C@@H](O)[C@H](OC(=O)CCc6ccccc6)[C@H]5NC(=O)CC(C)C)C[C@]4(C)[C@H]2CC[C@@]1(O)C3` [WEDELOSIDE], for which the LD100 in the data set filed under Rattus norvegicus [1] and in the data set with Mus musculus was 1 mg/kg each time. For the same molecule, in the data set listed under Rattus norvegicus [2], the outcome was Active.

Regarding `C=C1[C@H](O)[C@]23CC[C@H]4C(C(=O)O)(C(=O)O)C[C@@H](O[C@@H]5O[C@H](CO)[C@@H](O[C@@H]6O[C@@H](C)[C@H](O)[C@@H](O)[C@H]6O)[C@H](OC(=O)CCc6ccccc6)[C@H]5NC(=O)CC(C)C)C[C@]4(C)[C@H]2CC[C@@]1(O)C3`, the LD100 in the data set filed under Rattus norvegicus [1] and in the data set on Mus musculus was 1 mg/kg throughout.
